For 21 compounds, IC50 results are on record in patent US10710986B2, “PD-1/PD-L1 inhibitors” (Gilead Sciences, Inc., priority 2018, dated 2020).

A word on the IC50: it is the point on the concentration scale where inhibition reaches its midpoint.

This experiment deals with PD-1/PD-L1 (Homo sapiens (Human), UniProt Q9NZQ7). The experiment in a line: PD-1/PD-L1 biochemical protein-protein interaction assay (ALPHA). To be noted: 0.3 nM His tagged PD-L1, 2.5 nM biotinylated Fc-PD-1, 60 minutes at 25° C., read-out: IC50 PD-L1-PD1.
Sequence of PD-1/PD-L1 (Q9NZQ7 19-238): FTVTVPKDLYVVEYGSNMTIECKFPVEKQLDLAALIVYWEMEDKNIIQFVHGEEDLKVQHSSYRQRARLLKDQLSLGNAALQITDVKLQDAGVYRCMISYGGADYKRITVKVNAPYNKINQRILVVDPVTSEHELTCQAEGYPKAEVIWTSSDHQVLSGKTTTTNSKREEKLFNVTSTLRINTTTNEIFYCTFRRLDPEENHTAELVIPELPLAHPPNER
Consider `COc1nc(-c2cccc(-c3cccc(-c4cnc(CNC[C@@H]5CCC(=O)N5)c(OC)n4)c3Cl)c2Cl)cnc1CNCCNc1ccc([N+](=O)[O-])cc1` [compound 37], for which the IC50 was 1.7 nM.

As for `CCc1nc(-c2cccc(-c3cccc(-c4cnc(CN5CC6(CCC(=O)N6)C5)c(CC)n4)c3Cl)c2Cl)cnc1CN1CC2(CCC(=O)N2)C1` [compound 84], the IC50 came to 0.189 nM. The figure for `COc1nc(-c2cccc(-c3cccc(-c4cnc(CNCC5(O)COC5)c(OC)n4)c3Cl)c2Cl)cnc1CNCC1(O)COC1` [compound 588] is 0.17 nM; for `CCC(=O)NC1CCN(Cc2ncc(-c3cccc(-c4cccc(-c5cnc(CNC[C@@H]6CCC(=O)N6)c(OC)n5)c4Cl)c3Cl)nc2OC)C1` (stereo partly drawn) [compound 452] it is 0.086 nM. `COc1nc(-c2cccc(-c3cccc(-c4cnc(CNC(CO)CF)c(OC)n4)c3Cl)c2Cl)cnc1CNC[C@@H]1CCC(=O)N1` (stereo partly drawn) [compound 248]: the IC50 was 0.18 nM. For the compound `COc1nc(-c2cccc(-c3cccc(-c4cnc(CN5CC6(CCOC6)C5)c(OC)n4)c3Cl)c2Cl)cnc1CNC[C@@H]1CCC(=O)N1` [compound 234], the IC50 stood at 0.088 nM. In the case of `COc1nc(-c2cccc(-c3cccc(-c4cnc(CNC[C@@H]5CCC(=O)N5)c(OC)n4)c3Cl)c2Cl)cnc1CNCc1ccc(S(N)(=O)=O)s1` [compound 337], the IC50 turned out to be 1.1 nM. On to `COc1nc(-c2cccc(-c3cccc(-c4cnc(CNC[C@@H]5CCC(=O)N5)c(OC)n4)c3Cl)c2Cl)cnc1CNCCN1CCCC1=O` [compound 372], for which the IC50 came out at 0.104 nM. `COc1nc(-c2cccc(-c3cccc(-c4cnc5c(CN6CCC7(CCC(=O)N7)C6)cn(C)c5n4)c3Cl)c2Cl)cnc1CNC[C@H]1CCC(=O)N1` (stereo partly drawn) [compound 602]: the IC50 was determined as 0.145 nM. For `COc1nc(-c2cccc(-c3cccc(-c4ccc(CN5CC6(CCC(=O)N6)C5)c(C#N)c4)c3Cl)c2Cl)cnc1CNC[C@@H]1CCC(=O)N1` [compound 151], the IC50 stood at 0.684 nM. As for `COc1nc(-c2cccc(-c3cccc(-c4cnc(CN5CC(O)C5)c(OC)n4)c3Cl)c2Cl)ccc1C1=NCCN1` [compound 116], the IC50 came out at 0.064 nM. For the compound `COc1nc(-c2cccc(-c3cccc(-c4cnc(CNC[C@H]5C[C@@H](O)C5)c(OC)n4)c3Cl)c2Cl)cnc1CNC[C@H]1C[C@@H](O)C1` [compound 243], the half-maximal inhibitory concentration (IC50) was determined as 0.11 nM.

In the case of `COc1nc(-c2cccc(-c3cccc(-c4cnc(CN5CCN(C6CC6)CC5)c(OC)n4)c3Cl)c2Cl)cnc1CNC[C@@H]1CCC(=O)N1` [compound 269], the IC50 worked out at 0.23 nM. With `COc1nc(-c2cccc(-c3cccc(-c4cnc(CNC[C@@H]5CCC(=O)N5)c(OC)n4)c3Cl)c2Cl)cnc1CNCC1CCN(C(C)=O)C1` (stereo partly drawn) [compound 227], the IC50 worked out at 0.136 nM. As for `COc1nc(-c2cccc(-c3cccc(-c4cnc(CNC[C@@H]5CCC(=O)N5)c(OC)n4)c3Cl)c2Cl)cnc1CNCCc1cncc(O)c1` [compound 412], the figure is 0.187 nM; as for `COc1nc(-c2cccc(-c3cccc(-c4cnc(CN)c(OC)n4)c3Cl)c2Cl)ccc1CN` [compound 436], 5.46 nM; as for `COc1nc(-c2cccc(-c3cccc(-c4cnc(CNCC5(C)COC(=O)N5)c(OC)n4)c3Cl)c2Cl)cnc1CNC[C@@H]1CCC(=O)N1` (stereo partly drawn) [compound 210], 0.3 nM. Turning to `COc1nc(-c2cccc(-c3cccc(-c4cnc(CN5C[C@@H](O)C[C@@H](F)C5)c(OC)n4)c3Cl)c2Cl)cnc1CNC[C@@H]1CCC(=O)N1` [compound 263], the concentration for half-maximal inhibition (IC50) came out at 0.379 nM. For `C#CC1(O)CN(Cc2ncc(-c3cccc(-c4cccc(-c5cnc(CNC[C@@H]6CCC(=O)N6)c(OC)n5)c4Cl)c3Cl)nc2OC)C1` [compound 551], the IC50 was determined as 0.464 nM.

As for `COc1nc(-c2cccc(-c3cccc(-c4cnc(CN5CC(CO)C5)c(OC)n4)c3Cl)c2Cl)cnc1CNC[C@@H]1CCC(=O)N1` [compound 176], the IC50 stood at 0.111 nM. For the compound `COc1nc(-c2cccc(-c3cccc(-c4cnc(CNC5CCN(C(=O)c6ccoc6)CC5)c(OC)n4)c3Cl)c2Cl)cnc1CNC[C@@H]1CCC(=O)N1` [compound 415], the IC50 came out at 0.195 nM.
